IC50 data for 32 compounds are collected here from patent publication US10125118B2, “Heteroaryl compounds and their use as therapeutic drugs” (Dong-A Socio Holdings Co., Ltd., priority 2015, dated 2018).

The target of the assay is human c-MER catalytic domain (Homo sapiens (Human), UniProt Q12866). The assay is described as follows: LanthaScreen TR-FRET kinase assay, c-MER. The settings on record: read-out: Mer TK inhibition (IC50); Biochemical IC50, TR-FRET, 10 uM ATP. On the technique in general: TR-FRET usually uses a lanthanide donor and a delayed reading to cut background.
Chain of human c-MER catalytic domain (Q12866 587-858): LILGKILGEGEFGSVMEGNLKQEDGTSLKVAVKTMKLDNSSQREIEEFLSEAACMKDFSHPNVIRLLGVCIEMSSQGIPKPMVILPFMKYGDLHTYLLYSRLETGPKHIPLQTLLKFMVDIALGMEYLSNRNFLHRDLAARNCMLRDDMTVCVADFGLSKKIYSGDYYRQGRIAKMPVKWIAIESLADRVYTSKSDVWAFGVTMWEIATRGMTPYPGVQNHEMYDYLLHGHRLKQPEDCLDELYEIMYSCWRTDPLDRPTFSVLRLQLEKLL

Where only a bound is given, the exact number is not on record here.

Broadly, the IC50 is the concentration that inhibits the measured activity by half. For the compound `CN1CCN(Cc2ccc(-c3ccc(CO[C@H]4CCC[C@@H]4NC(=O)c4cc(C5=CCCCC5)cnc4N)cc3)cc2)CC1` [Example 382, 2-amino-5-(cyclohex-1-en-1-yl)-N-((1S,2S)-2-((4′-((4-methylpiperazin-1-yl)methyl)-[1,1′-biphenyl]-4-yl)methoxy)cyclopentyl)nicotinamide], the IC50 is less than 0.01 µM.
Consider `Cn1cc(-c2cnc(N)c(C(=O)N[C@H]3CCC[C@@H]3OCc3cccc([N+](=O)[O-])c3)c2)cn1` [Example 30, 2-amino-5-(1-methyl-1H-pyrazol-4-yl)-N-((1S,2S)-2-((3-nitrobenzyl)oxy)cyclopentyl)nicotinamide], for which the IC50 is more than 1 µM.
The result for `Cn1cc(-c2cnc(N)c(C(=O)N[C@H]3CCC[C@@H]3OCc3ccc(-n4nccn4)cc3)c2)cn1` [Example 62, N-((1S,2S)-2-((4-(2H-1,2,3-triazol-2-yl)benzyl)oxy)cyclopentyl)-2-amino-5-(1-methyl-1H-pyrazol-4-yl)nicotinamide] reads more than 1 µM; that for `Cn1cc(-c2cnc(N)c(C(=O)N[C@H]3CCC[C@@H]3OCc3cccc(C#N)c3)c2)cn1` [Example 31, 2-amino-N-((1S,2S)-2-((3-cyanobenzyl)oxy)cyclopentyl)-5-(1-methyl-1H-pyrazol-4-yl)nicotinamide], more than 1 µM; that for `Cn1cc(-c2cnc(N)c(C(=O)N[C@H]3CCC[C@@H]3OCc3cccc(C(=O)NCCO)c3)c2)cn1` [Example 56, 2-amino-N-((1S,2S)-2-((3-((2-hydroxyethyl)carbamoyl)benzyl)-oxy)cyclopentyl)-5-(1-methyl-1H-pyrazol-4-yl)nicotinamide], more than 1 µM.
As for `CN1CCN(Cc2ccc(-c3ccc(CO[C@H]4CCC[C@@H]4NC(=O)c4cccnc4N)cc3)cc2C(F)(F)F)CC1` [Example 207, 2-amino-N-((1S,2S)-2-((4′-((4-methylpiperazin-1-yl)methyl)-3′-(trifluoromethyl)-[1,1′-biphenyl]-4-yl)methoxy)cyclopentyl)nicotinamide], the IC50 was less than 0.01 µM.
The result for `COC(=O)c1cccc(CO[C@H]2CCC[C@@H]2NC(=O)c2cc(-c3cnn(C)c3)cnc2N)c1` [Example 42, methyl 3-((((1S,2S)-2-(2-amino-5-(1-methyl-1H-pyrazol-4-yl)nicotinamido)cyclopentyl)oxy)methyl)benzoate] reads more than 1 µM; that for `COC(=O)[C@H](COCc1ccccc1)NC(=O)c1cc(-c2cnn(C)c2)cnc1N` [Example 120, methyl N-(2-amino-5-(1-methyl-1H-pyrazol-4-yl)nicotinoyl)-O-benzyl-L-serinate], more than 1 µM; that for `Nc1ncc(-c2cnn(C3CCNCC3)c2)nc1C(=O)N[C@H]1CCCc2ccccc21` [Example 362, (S)-3-amino-6-(1-(piperidin-4-yl)-1H-pyrazol-4-yl)-N-(1,2,3,4-tetrahydronaphthalen-1-yl)pyrazine-2-carboxamide], more than 1 µM.
In the case of `COc1ccc(CO[C@H]2CCC[C@@H]2NC(=O)c2cc(-c3cnn(C)c3)cnc2N)cc1` [Example 35, 2-amino-N-((1S,2S)-2-((4-methoxybenzyl)oxy)cyclopentyl)-5-(1-methyl-1H-pyrazol-4-yl)nicotinamide], the half-inhibitory concentration (IC50) is more than 1 µM.
The result for `Cn1cc(-c2cnc(N)c(C(=O)N[C@@H]3[C@@H](COc4ccccc4)CCC3(F)F)c2)cn1` (relative stereo) [Example 79, 2-amino-N-(trans-2,2-difluoro-5-(phenoxymethyl)cyclopentyl)-5-(1-methyl-1H-pyrazol-4-yl)nicotinamide] reads more than 1 µM.
As for `Cn1cc(-c2cnc(N)c(C(=O)N[C@H]3CCCc4ccccc43)n2)cn1` [Example 131, (S)-3-amino-6-(1-methyl-1H-pyrazol-4-yl)-N-(1,2,3,4-tetrahydronaphthalen-1-yl)pyrazine-2-carboxamide], the IC50 was more than 1 µM.
Turning to `Nc1ncc(-c2ccc(Oc3ccccc3)cc2)cc1C(=O)N[C@H]1CCC[C@@H]1OCc1ccccc1` [Example 267, 2-amino-N-((1S,2S)-2-(benzyloxy)cyclopentyl)-5-(4-phenoxyphenyl)nicotinamide], the IC50 is more than 1 µM.
Take `Cn1cc(-c2cnc(N)c(C(=O)N[C@H]3CCC[C@@H]3OCc3cccc(NC(=O)C4CCNCC4)c3)c2)cn1` [Example 57, 2-amino-5-(1-methyl-1H-pyrazol-4-yl)-N-((1S,2S)-2-((3-(piperidine-4-carboxamido)benzyl)oxy)cyclopentyl)nicotinamide]: the IC50 is more than 1 µM.
In the case of `Cn1cc(-c2cnc(N)c(C(=O)N[C@@H](CO)C3CCCCC3)c2)cn1` [Example 114, (R)-2-amino-N-(1-cyclohexyl-2-hydroxyethyl)-5-(1-methyl-1H-pyrazol-4-yl)nicotinamide], the IC50 is more than 1 µM.
For the compound `Cn1cc(-c2cnc(N)c(C(=O)N[C@H]3COC[C@H]3O)c2)cn1` (relative stereo) [Example 92, 2-amino-N-(cis-4-hydroxytetrahydrofuran-3-yl)-5-(1-methyl-1H-pyrazol-4-yl)nicotinamide], the half-inhibitory concentration (IC50) is more than 1 µM.
As for `CN1CCN(Cc2ccc(Nc3ccc(C(=O)N[C@H]4CCC[C@@H]4OCc4ccccc4)c(N)n3)cc2)CC1` [Example 456, 2-amino-N-((1S,2S)-2-(benzyloxy)cyclopentyl)-6-((4-((4-methylpiperazin-1-yl)methyl)phenyl)amino)nicotinamide], the IC50 is more than 1 µM.
With `Cn1cc(-c2cnc(N)c(C(=O)N[C@H]3COC[C@@H]3N3CCCC3)c2)cn1` (relative stereo) [Example 91, 2-amino-5-(1-methyl-1H-pyrazol-4-yl)-N-(trans-4-(pyrrolidin-1-yl)tetrahydrofuran-3-yl)nicotinamide], the IC50 was more than 1 µM.
In the case of `CCCNC(=O)[C@@H](NC(=O)c1cc(-c2cnn(C)c2)cnc1N)[C@@H](C)OCc1ccccc1` [Example 123, 2-amino-N-((2S,3R)-3-(benzyloxy)-1-oxo-1-(propylamino)butan-2-yl)-5-(1-methyl-1H-pyrazol-4-yl)nicotinamide], the IC50 is more than 1 µM.
For `CCNc1ncc(-c2cnn(C)c2)cc1C(=O)N[C@H]1CCC[C@@H]1OCc1ccccc1` [Example 71, N-((1S,2S)-2-(benzyloxy)cyclopentyl)-2-(ethylamino)-5-(1-methyl-1H-pyrazol-4-yl)nicotinamide], the IC50 is more than 1 µM.
Take `CC(C)N1C[C@H](NC(=O)c2cc(-c3cnn(C)c3)cnc2N)[C@@H](OCc2ccccc2)C1` (relative stereo) [Example 94, 2-amino-N-(trans-4-(benzyloxy)-1-isopropylpyrrolidin-3-yl)-5-(1-methyl-1H-pyrazol-4-yl)nicotinamide]: the concentration for half-maximal inhibition (IC50) is more than 1 µM.
As to `Cn1cc(-c2cnc(N)c(C(=O)N[C@H]3CCC[C@@H]3OCc3cccc(O)c3)c2)cn1` [Example 32, 2-amino-N-((1S,2S)-2-((3-hydroxybenzyl)oxy)cyclopentyl)-5-(1-methyl-1H-pyrazol-4-yl)nicotinamide], the half-maximal inhibitory concentration (IC50) is more than 1 µM.
`C[C@@H](CNC(=O)c1cc(-c2cnn(C)c2)cnc1N)OCc1ccccc1` [Example 96, (S)-2-amino-N-(2-(benzyloxy)propyl)-5-(1-methyl-1H-pyrazol-4-yl)nicotinamide]: the IC50 was more than 1 µM.
Consider `Cn1cc(-c2cnc(N)c(C(=O)N[C@@H](COCc3ccccc3)C3CCCCC3)c2)cn1` [Example 113, (R)-2-amino-N-(2-(benzyloxy)-1-cyclohexylethyl)-5-(1-methyl-1H-pyrazol-4-yl)nicotinamide], for which the half-maximal inhibitory concentration (IC50) is more than 1 µM.
Consider `Cn1cc(-c2cnc(N)c(C(=O)N[C@H]3CCC[C@@H]3OCc3ccccc3-c3ccccc3)c2)cn1` (relative stereo) [Example 66, N-(trans-2-([1,1′-biphenyl]-2-ylmethoxy)cyclopentyl)-2-amino-5-(1-methyl-1H-pyrazol-4-yl)nicotinamide], for which the IC50 is more than 1 µM.
As for `Cn1cc(-c2cnc(N)c(C(=O)N[C@H]3CCC[C@@H]3OCc3ccccc3)c2)c(CNCCO)n1` [Example 262, 2-amino-N-((1S,2S)-2-(benzyloxy)cyclopentyl)-5-(3-(((2-hydroxyethyl)amino)methyl)-1-methyl-1H-pyrazol-4-yl)nicotinamide], the IC50 is more than 1 µM.
`COc1cccc(COC[C@@H](C)NC(=O)c2cc(-c3cnn(C)c3)cnc2N)c1` [Example 106, (R)-2-amino-N-(1-((3-methoxybenzyl)oxy)propan-2-yl)-5-(1-methyl-1H-pyrazol-4-yl)nicotinamide]: the IC50 is more than 1 µM.
In the case of `C[C@H](COCc1ccccc1)NC(=O)c1cc(-c2cnn(C)c2)cnc1N` [Example 98, (R)-2-amino-N-(1-(benzyloxy)propan-2-yl)-5-(1-methyl-1H-pyrazol-4-yl)nicotinamide], the 50% inhibitory concentration (IC50) was more than 1 µM.
Turning to `Cc1ccc(CO[C@H]2CCC[C@@H]2NC(=O)c2cc(-c3ccc(CNCC4CCN(C)CC4)cc3)cnc2N)cc1C` [Example 329, 2-amino-N-((1S,2S)-2-((3,4-dimethylbenzyl)oxy)cyclopentyl)-5-(4-((((1-methylpiperidin-4-yl)methyl)amino)methyl)phenyl)nicotinamide], the IC50 was less than 0.01 µM.
For the compound `Cn1cc(-c2cnc(N)c(C(=O)N[C@H]3CCC[C@@H]3OCc3ccccc3)c2)c(CN2CCCC(O)C2)n1` (stereo partly drawn) [Example 263, 2-amino-N-((1S,2S)-2-(benzyloxy)cyclopentyl)-5-(3-((3-hydroxypiperidin-1-yl)methyl)-1-methyl-1H-pyrazol-4-yl)nicotinamide], the IC50 was more than 1 µM.
Turning to `C[C@@H](OCc1ccccc1)[C@H](NC(=O)c1cc(-c2cnn(C)c2)cnc1N)C(=O)N1CCCC1` [Example 125, 2-amino-N-((2S,3R)-3-(benzyloxy)-1-oxo-1-(pyrrolidin-1-yl)butan-2-yl)-5-(1-methyl-1H-pyrazol-4-yl)nicotinamide], the IC50 was more than 1 µM.
Regarding `CN1CCN(Cc2ccc(-c3ccc(CO[C@H]4CCCC[C@@H]4NC(=O)c4cc(-c5cnn(C)c5)cnc4N)cc3)cc2)CC1` [Example 166, 2-amino-5-(1-methyl-1H-pyrazol-4-yl)-N-((1S,2S)-2-((4′-((4-methylpiperazin-1-yl)methyl)-[1,1′-biphenyl]-4-yl)methoxy)cyclohexyl)nicotinamide], the IC50 was more than 1 µM.
